Source: US20140213506A1, “THYMOSIN ALPHA PEPTIDE FOR PREVENTING, REDUCING THE SEVERITY OF, AND TREATING INFECTION” (priority 2011, published 2014)
No end group written: not given here.

How the values were obtained:
[1] = TA1 0.3-1.2 mg/kg/dose i.p. with Fluvirin
[2] = cited from earlier work
[3] = cited from earlier work; remark: listed apart in the source
[4] = doses as high as 800 times the recommended human dose; cited from earlier work
[5] = TA1 0.28 or 0.57 mg/kg s.c. with vaccine
Procedure: The vaccine (either Agrippal influPozzi seasonal vaccine, non-adjuvanted, or Fluad, MF-59 adjuvanted) was administered via intramuscular injection to the right leg at a full human dose of 0.5 mL. TA1 (0.285 or 0.570 mg/kg/dose) was administered by the subcutaneous route at a dose volume that, using a scaling factor for ferret/human dosing, corresponding to approximate human doses of 3.2 or 6.4 mg/kg. Animals were observed twice daily for mortality, general health, and both local and systemic signs of toxicity and illness as well as behavior under the responsibility of a professional veterinarian. Body weights were recorded prior to dosing only.

In the case of “Ac-SDAAVDTSSEITTKDLKEKKEVVEEAEN [TA1, (N-acetyl)-Ser-Asp-Ala-Ala-Val-Asp-Thr-Ser-Ser-Glu-11e-Thr-Thr-Lys-Asp-Leu-Lys-Glu-Lys-Lys-Glu-Val-Val-Glu-Glu-Ala-Glu-Asn-OH]”, the “clinical/cageside observations and body weight effects” value [1] is listed as “no test article-related clinical/cageside observations or body weight effects”, the survival [1] is listed as “All animals survived until scheduled termination” and the Peak plasma levels ([2]; after injection of 3.2 mg of TA1 (about 40 μg/kg)) is listed as “approximately 100 ng/ml”. For the same substance, the “half-life of TA1 in the circulation” value ([2]; in vivo) was “about 2 hours”, the plasma half-life ([2]; subcutaneously injected TA1) was “about two” and the “worsening of side effects in combination” value ([3]; TA1 combined with other agents such as interferon and chemotherapy) was “Nor has there been any worsening of side effects”. For the same substance, the drug-related side effects ([3]; more than 3,000 patients (adults, elderly, children; hepatitis B and C, primary immunodeficiency, cancers)) was “virtually no drug-related side effects”, the adverse clinical signs [4] was “no evidence of adverse clinical signs” and the “safety and tolerability, cage-side observations” value [5] was “safe and well-tolerated”.
